Data as given in patent US4640926A, “3,5-Substituted-2-pyridylalkylaminothiadiazoles having histamine H1 -antagonist activity” (Smith Kline & French Laboratories Limited, priority 1982, dated 1987).

Tests used:
histamine H1 -receptor = biological target: T1, histamine H1 -receptor (Cavia porcellus, UniProt P31389); assay: guinea pig ileum test (histamine H1-antagonist activity in vitro); assay type: cell-based; details: isolated guinea pig ileum, histamine-induced contraction, 8 min contact, 30° C., Schild plot; read-out: pA2 value (converted)
T1 construct: an isolated portion of the guinea pig ileum is secured under tension; from tissue; host or cells: isolated guinea pig ileum
T1 sequence (P31389 whole entry): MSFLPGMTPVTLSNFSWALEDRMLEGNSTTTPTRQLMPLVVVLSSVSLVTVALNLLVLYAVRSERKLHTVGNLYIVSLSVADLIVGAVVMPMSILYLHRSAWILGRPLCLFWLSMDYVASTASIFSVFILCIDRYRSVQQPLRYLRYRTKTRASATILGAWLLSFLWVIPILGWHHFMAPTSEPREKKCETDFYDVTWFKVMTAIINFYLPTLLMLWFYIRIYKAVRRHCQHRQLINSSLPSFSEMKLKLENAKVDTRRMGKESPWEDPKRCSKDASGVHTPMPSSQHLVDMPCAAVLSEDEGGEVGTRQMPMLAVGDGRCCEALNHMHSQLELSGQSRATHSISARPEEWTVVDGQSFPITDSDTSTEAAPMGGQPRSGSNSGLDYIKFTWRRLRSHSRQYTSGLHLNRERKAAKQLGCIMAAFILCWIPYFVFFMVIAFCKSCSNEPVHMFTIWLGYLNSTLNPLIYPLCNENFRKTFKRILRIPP
Description: In this test an isolated portion of the guinea pig ileum is secured under tension (500 mg) between an anchorage and a transducer in a 10 ml tissue bath and immersed in magnesium free Tyrode solution with constant aeration at a temperature of 30° C. The output from the transducer is amplified. The amplified output is in turn fed to a flat bed recorder. Measured amounts of histamine are added to the tissue bath so that the histamine concentration increases step-wise until the force of the contraction reaches a maximum. The tissue bath is washed out and filled with fresh magnesium free Tyrode solution containing compound under test. The solution is left in contact with the tissue for 8 min. and measured amounts of histamine are added again until a maximum contraction is recorded. The assay is repeated with increasing concentrations of test compound and the dose of histamine giving 50% of maximum contraction is noted. A dose ratio (DR) was calculated by comparing the concentrations of histamine required to produce 50% maximum response in the absence and in the presence of the antagonist. A plot of Log DR-1 against Log D (the concentration of compound under test) is made and the point of intersection with the Log (DR-1) ordinate is taken as the measure of the activity (pA2 value).

histamine H2 -receptor = biological target: T2, histamine H2 -receptor (Cavia porcellus, UniProt P47747); assay: guinea pig atrium test (histamine H2-antagonist activity in vitro); assay type: cell-based; details: isolated guinea pig right atrium, histamine-stimulated rate of beating, 60 min contact, 37° C., Schild plot; read-out: pA2 value (converted)
T2 construct: isolated portion of the guinea pig right atrium is secured under tension; from tissue; host or cells: isolated guinea pig right atrium
T2 sequence (P47747 whole entry): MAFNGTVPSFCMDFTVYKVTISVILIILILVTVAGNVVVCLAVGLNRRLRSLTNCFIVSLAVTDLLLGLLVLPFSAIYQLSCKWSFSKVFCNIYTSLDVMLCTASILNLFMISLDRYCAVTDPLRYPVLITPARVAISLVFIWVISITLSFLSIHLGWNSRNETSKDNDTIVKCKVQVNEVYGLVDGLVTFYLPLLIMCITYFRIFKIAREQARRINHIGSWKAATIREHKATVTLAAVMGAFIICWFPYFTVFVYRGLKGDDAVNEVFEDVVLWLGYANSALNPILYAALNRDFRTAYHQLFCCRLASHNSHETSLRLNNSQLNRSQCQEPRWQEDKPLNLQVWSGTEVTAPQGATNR
Description: The histamine H2 -antagonist activity of the compounds of formula (1) can be determined in vitro in the guinea pig atrium test. In this test a spontaneously beating isolated portion of the guinea pig right atrium is secured under tension (300 mg) between an anchorage and a transducer in a 15 ml tissue bath and immersed in McEwens solution with constant aeration at a temperature of 37° C. The output from the transducer is amplified. Output is in turn fed to a flat bed recorder. Measured amounts of histamine are added to the tissue bath so that the histamine concentration increases step-wise until the rate of beating reaches a maximum. The tissue bath is washed out and filled with fresh McEwens solution containing compound under test. The solution is left in contact with the tissue for 60 min. and measured amounts of histamine are added again until a maximum rate is recorded. The assay is repeated with increasing concentrations of test compound and the dose of histamine giving 50% of maximum rate is noted. A dose ratio (DR) was calculated by comparing the concentrations of histamine required to produce 50% maximum response in the absence and in the presence of the antagonist. A plot of Log DR-1 against Log D (the concentration of compound under test) is made and the point of intersection with the Log (DR-1) ordinate is taken as the measure of the activity (pA2 value).

Question: What does the source list for `CNC(=NCCCCc1ncc(Br)cc1C)NC#N` [Example 1, N-cyano-N'-methyl-N"-[4-(5-bromo-3-methylpyrid-2-yl)-butyl]-guanidine]?
Answer: Kb (histamine H1 -receptor): < 0.01 µM; Kb (histamine H2 -receptor): > 10 µM

Question: How did the Kb (histamine H1 -receptor) turn out when `Cc1cc(Br)cnc1CCCCN=C(NC#N)NCc1ccccc1` [Example 2, N-cyano-N'-benzyl-N"-[4-(5-bromo-3-methylpyrid-2-yl)-butyl]-guanidine] was run?
Answer: < 0.01 µM

Question: What about the Kb (histamine H2 -receptor) of the same compound?
Answer: > 10 µM
